Reference: patent publication US20070117770A1, “Human ribosomal DNA (rDNA) and ribosomal RNA (rRNA) nucleic acids and uses thereof” (Cylene Pharmaceuticals, Inc., priority 2005, published 2007)

System: cMYC RNA synthesis, HCT-116
Assay: PCR control assay of C-myc transcription
Assay type: cell-based
Details: not given
Description: A control assay that detected effects of the compounds on C-myc transcription also was conducted using a primer/probe set purchased from ABI (TaqMan Gene Expression Assay with assay ID: Hs99999003_m1). The following assay protocol was utilized:
(§1) Mix • 1 ug RNA • 2.5 ul 10× Taq Man buffer • 5.5 ul 25 mM MgCl2 • 5 ul of a mix of dNTP (500 uM each) • 1.2 ul random hexamer primer (2.5 uM stock) • 0.5 ul RNase inhibitor (0.4 units/ul) • 0.6 ul Reverse Transcriptase (1.2 units/ul) • bring to 25 ul total volume with water
(§2) Mix • 5 ul Reverse Transcriptase reaction product • 12.5 ul 2×PCR mix • 1 uM forward primer • 1 uM reverse primer • 0.5 uM Taq Man probe • 500 nM Rox • Adjust to 25 ul final volume with water
(§3) PCR cycles • 95 degrees C. 1 minute • 40 cycles of • 95 degrees C. 15 seconds • 60 degrees C. 1 minute.
(§4) Fluorescence of digested label was detected and quantified. […] The effect of other compounds on rRNA synthesis also were assessed in the assay, and provided in the table hereafter are IC50 values of selected compounds pertaining to rRNA synthesis and cMYC RNA synthesis.

Row | Compound | QPCRMYC IC50_HCT-116
1 | CC(C)N1CCN(c2nc3c(cc2F)c(=O)c(C(=O)NCCC2CCCN2C)c2n(C)c4ccc(C#N)cc4n32)CC1 (stereo not shown) [Compound 3] | INACTIVE

Same assay, conditions: Homo sapiens, read-out: QPCRMYC IC50_HCT-116

Row | Compound | IC50 [nM]
2 | O=C(NCCN1CCOCC1)c1c(=O)c2cnc(N3CCNCC3)nc2n2c1sc1ccccc12 [Compound 7] | 300
3 | CC(=O)N1CCN(c2c(F)cc3c(=O)c(C(=O)NCCN4CCCC4)cn4c3c2Oc2cc(Cl)ccc2-4)CC1 [Compound 4] | 300
4 | CC(=O)N1CCN(c2ccc3c(=O)n(CCCN4CCCC4)c4nc5ccccc5n4c3n2)CC1 [Compound 8] | 300
5 | CC(=O)N1CCN(c2ccc3c(=O)c(C(=O)NCCN4CCCC4)c4sc5ccccc5n4c3n2)CC1 [Compound 6] | 300
6 | O=C(NCCN1CCCC1)c1cn2c3c(c(N4CCOCC4)c(F)cc3c1=O)Oc1cc(Cl)ccc1-2 [Compound 5] | 300
7 | COc1ccc2c(=O)c(C(=O)NCCN3CCCC3)c3sc4ccccc4n3c2n1 [Compound 9] | 300
8 | O=C(NCCN1CCCC1)c1cn2c3c(c(NCCN4CCCC4)c(F)cc3c1=O)Oc1ccccc1-2 [Compound 1] | 10
9 | CC(C)N1CCN(c2c(F)cc3c(=O)c(C(=O)NCCN4CCCC4)cn4c3c2Oc2cc(Cl)ccc2-4)CC1 [Compound 2] | 100

Molecular target: T1, nucleolin/cMyc QP DNA (Homo sapiens, UniProt P19338)
T1 construct: without the N-terminal acidic stretches domain
T1 sequence (P19338 284-710 limits assumed): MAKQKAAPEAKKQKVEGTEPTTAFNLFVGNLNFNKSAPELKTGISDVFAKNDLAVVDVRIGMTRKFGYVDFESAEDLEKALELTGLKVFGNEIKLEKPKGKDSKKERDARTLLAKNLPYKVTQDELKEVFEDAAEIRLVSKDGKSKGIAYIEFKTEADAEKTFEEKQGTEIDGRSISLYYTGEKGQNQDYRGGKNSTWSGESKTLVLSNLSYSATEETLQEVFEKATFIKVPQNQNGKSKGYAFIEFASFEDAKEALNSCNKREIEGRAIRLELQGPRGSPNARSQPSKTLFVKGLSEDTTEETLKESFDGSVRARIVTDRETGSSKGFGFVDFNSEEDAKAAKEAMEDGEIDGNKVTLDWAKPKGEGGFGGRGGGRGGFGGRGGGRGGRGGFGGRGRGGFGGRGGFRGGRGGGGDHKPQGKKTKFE
Assay: EMSA, nucleolin/QP ligand interaction
Assay type: binding
Details: nucleolin ~250 nM, 32P-labeled ligand 10 or 250 nM, 30 minutes (FIG. 1, FIG. 2)
Description: (§5) The following assays assessed effects of compounds on interactions between nucleolin and nucleic acid ligands capable of forming quadruplex (QP) and hairpin (HP) secondary structures. Nucleic acid ligands tested were a cMyc QP DNA having nucleotide sequence 5′-[…]-3′ (SEQ ID NO: 176) and a HP pre-rRNA region to which nucleolin binds, having the sequence 5′-[…]-3′ (SEQ ID NO: 177). In the assays, recombinant nucleolin (˜250 nM), which was fused to maltose binding protein and had the sequence under accession number NM_005381 without the N-terminal acidic stretches domain, was incubated with each of the two ^32P-labeled nucleic acid ligands (10 or 250 nM). Nucleolin and the nucleic acid ligand were incubated in the presence or absence of a test compound of Formula A-1, B-1, C-6 or C-7 in an incubation buffer (12.5 mM Tris, pH 7.6, 60 mM KCl, 1 mM MgCl2, 0.1 mM EDTA, 1 mM DTT, 5% glycerol, 0.1 mg/ml BSA) for 30 minutes at room temperature. Structures for A-1 and B-1 are shown above and structures for C-6 and C-7 are shown hereafter: [drawing 17] The resulting complexes were separated on a 6% DNA retardation gel using 0.5× TBE with 20 mM KCl as a running buffer (i.e., electrophoresis mobility shift assay (EMSA)).

Row | Compound | interference with the nucleolin/QP ligand interaction
10 | CC(=O)N1CCN(c2c(F)cc3c(=O)c(C(=O)NCCN4CCCC4)cn4c3c2Oc2cc(Cl)ccc2-4)CC1 [Compound C-6] | interfered with the nucleolin/QP ligand interaction
11 | CC(=O)N1CCN(c2c(F)cc3c(=O)c(C(=O)NCCC4CCCN4C)cn4c3c2Oc2cc3ccccc3cc2-4)CC1 (stereo not shown) [Compound C-7] | interfered with the nucleolin/QP ligand interaction

Molecular target: T2, nucleolin (Homo sapiens, UniProt P19338)
T2 construct: without the N-terminal acidic stretches domain
T2 sequence (P19338 284-710 limits assumed): as above
Assay: Filter-binding assay of 32P-labeled quadruplexes and Nucleolin
Details: not given
Description: The assay also was conducted in a filter-binding format. […] The protein-quadruplex mixtures were incubated for 30 min at ambient temperature and filtered through mixed cellulose ester membrane filters (Millipore) with gentle suction. The filters were washed twice with […] of binding buffer, dried and OptiPhase ‘SuperMix’ scintillation cocktail (Perkin Elmer) was added to the wells. Radioactivity was assayed with MicroBeta scintillation counter (Perkin Elmer). Binding curves were constructed and apparent Kd's and Bmax's for the complexes were calculated using the GraphPad Prizm software program (GraphPad Software). In the following table, the nucleic acid ligand is designated in the first column using the nomenclature described herein; the second column provides the nucleotide sequence of the nucleic acid ligand; the third column is the conformation of the ligand as determined by circular dichroism (M is mixed, P is parallel, A is antiparallel, C is complex, SS is single-stranded and ND is not determined); the fourth column is the dissociation constant determined by the filter binding assay of nucleolin protein and the nucleic acid ligand; the fifth column is a Bmax constant determined by the filter binding assay, which is the percent of active nucleic acid ligand in each assay; and the sixth column presents the concentration of Compound A-1 required to dissociate half of the complexed nucleic acid ligand and nucleolin protein, as determined by the EMSA assay described above.

Row | Compound | Bmax, percent of active nucleic acid ligand [%]
12 | GGGGGCGGGCTCCGGCGGGTGCGGGGGTGGGCGGGCGGGGCCGGGGGTGGGGTCGGCGGGGG [Compound 8511NT] | 100
13 | GGGGCGCGGCGGGGGGAGAAGGGTCGGGGCGGCAGGGG (listed as DNA, chemistry not given here; listed as Homo sapiens) [Compound 11028NT] | 32
14 | GGGTCGGGGGCGGTGGTGGGCCCGCGGGGG (listed as DNA, chemistry not given here; listed as Homo sapiens) [Compound 6183NT] | 26
15 | GGGAGGGGCACGGGCCGGGGGCGGGACGGG (listed as DNA, chemistry not given here; listed as Homo sapiens) [Compound 7733T] | 53
16 | GGGAGGGCGCGCGGGTCGGGG (listed as DNA, chemistry not given here; listed as Homo sapiens) [Compound 8749NT] | 13

Same assay, conditions: 0.2 nM 32P-labeled quadruplex, read-out: Kd, apparent dissociation constant of nucleolin protein and the nucleic acid ligand

Row | Compound | Kd [nM]
17 | GGGGGCGGGCTCCGGCGGGTGCGGGGGTGGGCGGGCGGGGCCGGGGGTGGGGTCGGCGGGGG [Compound 8511NT] | 0.6
18 | GGGGCGCGGCGGGGGGAGAAGGGTCGGGGCGGCAGGGG (listed as DNA, chemistry not given here; listed as Homo sapiens) [Compound 11028NT] | 2.7
19 | GGGTCGGGGGCGGTGGTGGGCCCGCGGGGG (listed as DNA, chemistry not given here; listed as Homo sapiens) [Compound 6183NT] | 2.2
20 | GGGAGGGGCACGGGCCGGGGGCGGGACGGG (listed as DNA, chemistry not given here; listed as Homo sapiens) [Compound 7733T] | 0.8
21 | GGGAGGGCGCGCGGGTCGGGG (listed as DNA, chemistry not given here; listed as Homo sapiens) [Compound 8749NT] | 1.9

Molecular target: T2, nucleolin
Assay: EMSA, relative affinity of nucleic acid ligands for nucleolin
Assay type: binding
Parameters: key: +: weakest nucleolin affinity; ++++: strongest nucleolin affinity
Details: not given
Description: as §5
The assay also was conducted using nucleic acid ligands derived from human ribosomal DNA. Sequences of these nucleic acids are shown in the preceding example. […] A “+” represents the weakest nucleolin affinity and least interference by compound A-1 and a “++++” represents the strongest nucleolin affinity and greatest interference by compound A-1.

Row | Compound | Affinity for Nucleolin (relative)
22 | GGGGGCGGGCTCCGGCGGGTGCGGGGGTGGGCGGGCGGGGCCGGGGGTGGGGTCGGCGGGGG [Compound 8511NT] | ++++
23 | GGGGCGCGGCGGGGGGAGAAGGGTCGGGGCGGCAGGGG (listed as DNA, chemistry not given here; listed as Homo sapiens) [Compound 11028NT] | +
24 | GGGTCGGGGGCGGTGGTGGGCCCGCGGGGG (listed as DNA, chemistry not given here; listed as Homo sapiens) [Compound 6183NT] | +
25 | GGGAGGGGCACGGGCCGGGGGCGGGACGGG (listed as DNA, chemistry not given here; listed as Homo sapiens) [Compound 7733T] | +
26 | GGGAGGGCGCGCGGGTCGGGG (listed as DNA, chemistry not given here; listed as Homo sapiens) [Compound 8749NT] | +

Molecular target: T3, nucleolin/HP pre-rRNA region (Homo sapiens, UniProt P19338)
T3 construct: without the N-terminal acidic stretches domain
T3 sequence (P19338 284-710 limits assumed): as the sequence (P19338 284-710 limits assumed) above
Assay: EMSA, nucleolin/HP ligand interaction
Assay type: binding
Details: nucleolin ~250 nM, 32P-labeled ligand 10 or 250 nM, 30 minutes (FIG. 1, FIG. 2)
Description: as §5

Row | Compound | interference with the nucleolin/HP ligand interaction
27 | CC(=O)N1CCN(c2c(F)cc3c(=O)c(C(=O)NCCN4CCCC4)cn4c3c2Oc2cc(Cl)ccc2-4)CC1 [Compound C-6] | did not significantly interfere with the nucleolin/HP ligand interaction
28 | CC(=O)N1CCN(c2c(F)cc3c(=O)c(C(=O)NCCC4CCCN4C)cn4c3c2Oc2cc3ccccc3cc2-4)CC1 (stereo not shown) [Compound C-7] | did not significantly interfere with the nucleolin/HP ligand interaction

System: 28S rRNA and 18S rRNA (total RNA from HCT116 cells)
Assay: Human rRNA interaction screening assay (agarose gel electrophoresis mobility shift)
Assay type: binding
Details: 1 ug total RNA; 10 uM compound or 0.5 ug/mL PI, 15 min, room temperature
Description: RNA was isolated from HCT116 cells (RNeasy kit, QIAGEN) and contacted in vitro with each compound from a library of compounds. In representative assays, 1 ug of total RNA from HCT116 cells was incubated with 0.5 ug/mL of propidium iodide (PI), 10 uM compound A-1 or another compound in the library in a volume of 10 uL for 15 min at room temperature, followed by agarose gel electrophoresis. Fluorescence of the compounds was visualized on each gel. […] Compounds C-1, C-2, C-3, C-4 and C-5 have the following general formula: [drawing 15] [drawing 16]

Row | Compound | binding to 28S versus 18S rRNA
29 | CN1CCCC1CCNC(=O)c1cn2c3c(c(N4CCC(c5ccccn5)C4)c(F)cc3c1=O)Oc1cc3ccccc3cc1-2 (stereo not shown) [Compound C-4] | less selectivity for 28S over 18S
30 | CC[N+](C)(CC)CCC[n+]1c(-c2ccccc2)c2cc(N)ccc2c2ccc(N)cc21.[I-].[I-] [PI, propidium iodide, reference compound] | did not discriminate in its binding to 18S and 28S rRNA
31 | CN1CCCC1CCNC(=O)c1cn2c3c(c(N4CCC(c5ccccn5)C4)c(F)cc3c1=O)Oc1cc3ccccc3cc1-2 (stereo not shown) [Compound C-3] | less selectivity for 28S over 18S
32 | CN1CCCC1CCNC(=O)c1cn2c3c(c(N4CCC(c5ccccn5)C4)c(F)cc3c1=O)Oc1cc3ccccc3cc1-2 (stereo not shown) [Compound C-1] | selective binding to 28S over 18S
33 | CN1CCCC1CCNC(=O)c1cn2c3c(c(N4CCC(c5ccccn5)C4)c(F)cc3c1=O)Oc1cc3ccccc3cc1-2 (stereo not shown) [Compound C-5] | specific binding to 28S over 18S
34 | CN1CCCC1CCNC(=O)c1cn2c3c(c(N4CCC(c5ccccn5)C4)c(F)cc3c1=O)Oc1cc3ccccc3cc1-2 (stereo not shown) [Compound C-2] | selective binding to 28S over 18S

System: rRNA synthesis, HCT-116
Assay: PCR assay of rRNA synthesis from 45S rDNA (5' ETS probe)
Assay type: cell-based
Details: Homo sapiens; rRNA synthesis, HCT-116; read-out: QPCRrDNA IC50_HCT-116
Description: Assays were conducted to determine the effects of compounds on rRNA synthesis from 45S rDNA. In particular, compound A-1 at various concentrations was incubated with cells and tested for an effect on rRNA synthesis after a two hour or four hour incubation with the compound. Synthesized rRNA was quantified by a polymerase chain reaction (PCR) assay. A primer/probe set was designed using Primer Express software and synthesized by Applied Biosystems. The 5′ ETS Probe utilized had the following sequence (@ its 3′ end): 6FAM-TTG ATC CTG CCA GTA GC-MGBNFQ (SEQ ID NO:227). The primer sequences were as follows:
as §1, §2, §3, §4

Row | Compound | IC50 [nM]
35 | O=C(NCCN1CCOCC1)c1c(=O)c2cnc(N3CCNCC3)nc2n2c1sc1ccccc12 [Compound 7] | 80
36 | CC(=O)N1CCN(c2c(F)cc3c(=O)c(C(=O)NCCN4CCCC4)cn4c3c2Oc2cc(Cl)ccc2-4)CC1 [Compound 4] | 50
37 | CC(=O)N1CCN(c2ccc3c(=O)n(CCCN4CCCC4)c4nc5ccccc5n4c3n2)CC1 [Compound 8] | 50
38 | CC(C)N1CCN(c2nc3c(cc2F)c(=O)c(C(=O)NCCC2CCCN2C)c2n(C)c4ccc(C#N)cc4n32)CC1 (stereo not shown) [Compound 3] | 50
39 | CC(=O)N1CCN(c2ccc3c(=O)c(C(=O)NCCN4CCCC4)c4sc5ccccc5n4c3n2)CC1 [Compound 6] | 80
40 | O=C(NCCN1CCCC1)c1cn2c3c(c(N4CCOCC4)c(F)cc3c1=O)Oc1cc(Cl)ccc1-2 [Compound 5] | 50
41 | COc1ccc2c(=O)c(C(=O)NCCN3CCCC3)c3sc4ccccc4n3c2n1 [Compound 9] | 50
42 | O=C(NCCN1CCCC1)c1cn2c3c(c(NCCN4CCCC4)c(F)cc3c1=O)Oc1ccccc1-2 [Compound 1] | 50
43 | CC(C)N1CCN(c2c(F)cc3c(=O)c(C(=O)NCCN4CCCC4)cn4c3c2Oc2cc(Cl)ccc2-4)CC1 [Compound 2] | 50
